System: pediatric subjects with acute hypoxemic respiratory failure (AHRF)
Assay: Pediatric AHRF study: adverse events, serious adverse events, deaths, discontinuations
Type: in vivo, human
Conditions: 5 ppm
Description: This was a prospective, multicenter, randomized, double-blind, placebo-controlled, parallel-group study of the safety and efficacy of inhaled nitric oxide in pediatric subjects with acute hypoxemic respiratory failure (AHRF). The subjects were randomized to receive either 5 ppm inhaled nitric oxide or placebo.
Nitric Oxide for inhalation at 5 ppm was administered continuously into the inspiratory limb of the ventilator circuit in mechanically ventilated subjects using a blinded version of the INOvent® delivery system.
Subjects received 100% treatment gas (nitric oxide 5 ppm or placebo [nitrogen gas]) until Day 28 or extubation, whichever occurred first.
This was a prospective, multicenter, randomized, double-blind, placebo-controlled, Phase III study to assess the effects of nitric oxide for inhalation in the treatment of acute hypoxic respiratory failure (AHRF) in pediatric subjects. The study population consisted of male and female pediatric subjects, aged 44 weeks postconceptional age to 16 years age, who were admitted to the pediatric intensive care unit (PICU) and who required intubation because of AHRF. The inclusion/exclusion criteria are described in the Patients section below.
Standardized ventilatory management and weaning procedures were used. Ventilatory management was used based on an “open lung approach” using positive end-expiratory pressure (PEEP) to increase lung volume and limiting tidal volumes to reduce plateau pressures. Subjects received nitric oxide for inhalation at 5 ppm or placebo (100% Grade 5 nitrogen gas) into the inspiratory limb of the ventilator circuit using a blinded version of the INOvent® delivery system. The subjects were treated until Day 28 or extubation, whichever occurred first. Subjects were assessed daily using a spontaneous breathing trial, according to the institution's standard of care. Arterial blood gases (ABG), ventilator settings, methemoglobin, oxygenation index, systolic blood pressure, diastolic blood pressure, Pediatric Risk of Mortality (PRISM) III score, and subject positioning (prone or supine) were performed/recorded at specified times during the study. Selected centers also performed plasma cytokine assays, bronchoalveolar lavage fluid (BALF) assays, and a 6-month follow-up assessment.

[1] = AE in which death was the outcome
[2] = AE not suspected related to study treatment

[N]=O [Nitric Oxide, nitric oxide]
most frequently reported AEs: bradycardia and hypotension
subjects who died during the follow-up period after treatment: 1
subjects who died during treatment: 2
frequency of treatment discontinuation due to AEs (1 of 26 subjects, placebo 6.9%): 3.9%
subjects with serious AEs (SAEs) (1 of 26 subjects, placebo 27.6%): 3.9%
subjects with severe AEs (2 subjects, placebo 34.5%): 7.7%
subjects reporting AEs (16 of 26 subjects, placebo 72.4%): 61.5%
Bradycardia [1]: 1 (3.8%) n (%)
Brain edema [1]: 0 (0.0) n (%)
Cardiac arrest [1]: 0 (0.0) n (%)
Diabetic ketoacidosis [1]: 0 (0.0) n (%)
Hemolytic anemia [1]: 0 (0.0) n (%)
Hepatic failure [1]: 0 (0.0) n (%)
Hypotension [1]: 1 (3.8%) n (%)
Intracranial pressure increased [1]: 0 (0.0) n (%)
Multi-organ failure [1]: 0 (0.0) n (%)
Pancreatitis [1]: 0 (0.0) n (%)
Pneumonia, aspergillus [1]: 0 (0.0) n (%)
Pulmonary hemorrhage [1]: 0 (0.0) n (%)
Renal failure [1]: 0 (0.0) n (%)
Renal impairment [1]: 0 (0.0) n (%)
Sepsis [1]: 0 (0.0) n (%)
Abdominal distension [2]: 0 (0.0) n (%)
Acidosis [2]: 1 (3.8%) n (%)
Agitation [2]: 2 (7.7%) n (%)
Anemia [2]: 1 (3.8%) n (%)
Apnea [2]: 1 (3.8%) n (%)
Arrhythmia [2]: 1 (3.8%) n (%)
Ascites [2]: 1 (3.8%) n (%)
Bacteremia [2]: 2 (7.7%) n (%)
Bacteria, blood [2]: 1 (3.8%) n (%)
Bacteria, sputum [2]: 0 (0.0) n (%)
Bladder distension [2]: 0 (0.0) n (%)
Bradycardia [2]: 3 (11.5%) n (%)
Brain edema [2]: 0 (0.0) n (%)
Bronchoalveolar lavage [2]: 1 (3.8%) n (%)
C-reactive protein increased [2]: 0 (0.0) n (%)
Cardiac arrest [2]: 0 (0.0) n (%)
Cerebral artery occlusion [2]: 0 (0.0) n (%)
Chest tube insertion [2]: 1 (3.8%) n (%)
Deep vein thrombosis [2]: 2 (7.7%) n (%)
Device failure [2]: 0 (0.0) n (%)
Diabetic ketoacidosis [2]: 0 (0.0) n (%)
Diarrhea [2]: 0 (0.0) n (%)
Disseminated intravascular coagulation [2]: 0 (0.0) n (%)
Empyema [2]: 0 (0.0) n (%)
Feeding disorder [2]: 0 (0.0) n (%)
Fungemia [2]: 1 (3.8%) n (%)
Fungus culture positive [2]: 0 (0.0) n (%)
Fungus urine test positive [2]: 0 (0.0) n (%)
Gastrointestinal hemorrhage [2]: 0 (0.0) n (%)
Generalized edema [2]: 0 (0.0) n (%)
Grangrene [2]: 1 (3.8%) n (%)
Hematuria [2]: 0 (0.0) n (%)
Hemoglobinemia [2]: 1 (3.8%) n (%)
Hemolytic anemia [2]: 0 (0.0) n (%)
Hemopneumothorax [2]: 0 (0.0) n (%)
Hemorrhage [2]: 0 (0.0) n (%)
Hemothorax [2]: 0 (0.0) n (%)
Hepatic failure [2]: 0 (0.0) n (%)
Hepatosplenomegaly [2]: 1 (3.8%) n (%)
Hyperammonemia [2]: 0 (0.0) n (%)
Hypercalcemia [2]: 1 (3.8%) n (%)
Hypercapnia [2]: 0 (0.0) n (%)
Hyperchloremia [2]: 1 (3.8%) n (%)
Hyperglycemia [2]: 1 (3.8%) n (%)
Hyperkalemia [2]: 1 (3.8%) n (%)
Hyperlipidemia [2]: 0 (0.0) n (%)
Hypernatremia [2]: 2 (7.7%) n (%)
Hypertension [2]: 0 (0.0) n (%)
Hypocalcemia [2]: 1 (3.8%) n (%)
Hypochloremia [2]: 0 (0.0) n (%)
Hypokalemia [2]: 2 (7.7%) n (%)
Hypotension [2]: 3 (11.5%) n (%)
Hypothermia [2]: 0 (0.0) n (%)
Hypoxia [2]: 0 (0.0) n (%)
Intracranial pressure increased [2]: 0 (0.0) n (%)
Labile blood pressure [2]: 0 (0.0) n (%)
Leukocytosis [2]: 1 (3.8%) n (%)
Lung infection, pseudomonal [2]: 0 (0.0) n (%)
Medical device removal [2]: 0 (0.0) n (%)
Metabolic acidosis [2]: 0 (0.0) n (%)
Metabolic alkalosis [2]: 1 (3.8%) n (%)
Multi-organ failure [2]: 0 (0.0) n (%)
Ocular icterus [2]: 0 (0.0) n (%)
Oliguria [2]: 0 (0.0) n (%)
Oxygen saturation decreased [2]: 2 (7.7%) n (%)
Pancreatitis [2]: 0 (0.0) n (%)
Pleural effusion [2]: 0 (0.0) n (%)
Pneumomediastinum [2]: 0 (0.0) n (%)
Pneumonia [2]: 1 (3.8%) n (%)
Pneumonia, aspergillus [2]: 0 (0.0) n (%)
Pneumonia, staphylococcal [2]: 1 (3.8%) n (%)
Pneumothorax [2]: 2 (7.7%) n (%)
Pruritus [2]: 0 (0.0) n (%)
Pseudomonal sepsis [2]: 1 (3.8%) n (%)
Pulmonary hemorrhage [2]: 0 (0.0) n (%)
Pulmonary hypertension [2]: 0 (0.0) n (%)
Pyrexia [2]: 0 (0.0) n (%)
Renal failure [2]: 1 (3.8%) n (%)
Renal failure, acute [2]: 0 (0.0) n (%)
Renal impairment [2]: 0 (0.0) n (%)
Respiratory acidosis [2]: 0 (0.0) n (%)
Respiratory failure [2]: 1 (3.8%) n (%)
Sepsis [2]: 0 (0.0) n (%)
Skin injury [2]: 0 (0.0) n (%)

From patent US10201564B2, “Methods of using inhaled nitric oxide gas for treatment of acute respiratory distress syndrome in children” (Mallinckrodt Hospital Products IP Limited, priority 2014, dated 2019)
